Results: patent US20070208166A1, “Tao Kinase Modulators And Method Of Use” (Exelixis, Inc., priority 2003, published 2007)

Key:
Type in all cases: biochemical
[1] = molecular target: T1, TAO (Homo sapiens, UniProt Q9UL54); test: TAO Luciferase-Coupled Chemiluminescent Kinase assay (LCCA); conditions: 2 μM ATP, 10 μM MBP, 12 nM TAO, 2 hours; read-out: TAO inhibition IC50
T1 sequence (Q9UL54 1-1235): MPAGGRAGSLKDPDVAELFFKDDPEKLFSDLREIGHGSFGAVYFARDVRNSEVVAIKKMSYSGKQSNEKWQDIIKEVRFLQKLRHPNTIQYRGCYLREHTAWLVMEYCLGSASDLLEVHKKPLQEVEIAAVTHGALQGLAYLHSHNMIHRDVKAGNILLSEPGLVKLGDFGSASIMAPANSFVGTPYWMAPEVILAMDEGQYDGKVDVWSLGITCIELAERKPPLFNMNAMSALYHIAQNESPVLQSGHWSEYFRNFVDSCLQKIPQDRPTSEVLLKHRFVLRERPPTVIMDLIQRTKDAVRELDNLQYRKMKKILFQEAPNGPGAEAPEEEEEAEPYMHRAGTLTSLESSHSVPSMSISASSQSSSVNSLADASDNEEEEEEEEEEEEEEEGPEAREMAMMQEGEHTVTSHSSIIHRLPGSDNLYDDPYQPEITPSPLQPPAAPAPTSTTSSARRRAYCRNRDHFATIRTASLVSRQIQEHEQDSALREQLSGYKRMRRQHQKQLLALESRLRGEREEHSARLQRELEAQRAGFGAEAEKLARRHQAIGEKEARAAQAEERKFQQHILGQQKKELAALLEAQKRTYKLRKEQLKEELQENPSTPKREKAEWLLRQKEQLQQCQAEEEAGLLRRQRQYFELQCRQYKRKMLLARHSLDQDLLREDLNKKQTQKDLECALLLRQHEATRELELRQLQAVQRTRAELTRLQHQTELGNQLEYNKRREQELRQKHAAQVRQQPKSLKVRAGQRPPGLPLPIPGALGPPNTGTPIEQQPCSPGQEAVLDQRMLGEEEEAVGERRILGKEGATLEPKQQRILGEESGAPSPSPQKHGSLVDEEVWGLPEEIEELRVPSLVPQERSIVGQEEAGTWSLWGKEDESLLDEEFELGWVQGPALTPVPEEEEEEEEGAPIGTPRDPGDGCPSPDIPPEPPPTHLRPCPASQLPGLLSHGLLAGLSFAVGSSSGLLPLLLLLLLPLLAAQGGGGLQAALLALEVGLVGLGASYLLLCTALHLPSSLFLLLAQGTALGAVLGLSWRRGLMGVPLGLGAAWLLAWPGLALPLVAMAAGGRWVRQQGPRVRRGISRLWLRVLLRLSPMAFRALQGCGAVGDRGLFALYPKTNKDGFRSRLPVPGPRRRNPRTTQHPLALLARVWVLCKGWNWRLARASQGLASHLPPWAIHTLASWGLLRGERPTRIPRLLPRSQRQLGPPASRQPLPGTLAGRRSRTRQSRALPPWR

[2] = molecular target: T2, JIK (Homo sapiens, UniProt Q9H2K8); test: JIK Luciferase-Coupled Chemiluminescent Kinase assay (LCCA); conditions: 2 μM ATP, 10 μM MBP, 6 nM JIK, 2 hours; read-out: JIK inhibition IC50
T2 construct: 6 nM JIK (baculovirus expressed human KIAA 1361 kinase domain2-318); made in house
T2 sequence (Q9H2K8 2-318): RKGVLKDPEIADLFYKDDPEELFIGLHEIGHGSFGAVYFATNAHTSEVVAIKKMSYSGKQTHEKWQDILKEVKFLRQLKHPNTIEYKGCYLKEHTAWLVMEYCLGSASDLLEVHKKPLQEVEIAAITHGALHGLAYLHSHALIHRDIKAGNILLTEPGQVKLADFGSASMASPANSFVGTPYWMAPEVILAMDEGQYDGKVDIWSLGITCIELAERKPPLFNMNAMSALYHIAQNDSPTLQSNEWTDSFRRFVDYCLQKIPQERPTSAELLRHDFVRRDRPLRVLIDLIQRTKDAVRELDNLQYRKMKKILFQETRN
Outline: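 Baculovirus-expressed human KIAA 1361 kinase domain 2-318 at 6 nM, with 10 μM MBP and 2 μM ATP in Tris pH 7.5 with Mg/Mn, ran 2 h at ambient temperature. Remaining ATP was read by luciferase chemiluminescence. IC50 comes from a 10-concentration four-parameter fit.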

[3] = molecular target: T3, KIAA 1361 (baculovirus expressed human KIAA 1361 kinase domain 2-322) (Homo sapiens, UniProt Q7L7X3); test: KIAA 1361 Luciferase-Coupled Chemiluminescent Kinase assay (LCCA); conditions: 2 μM ATP, 10 μM MBP, 12 nM KIAA 1361, 2 hours; read-out: KIAA1361 inhibition IC50
T3 construct: human KIAA 1361 kinase domain 2-322; made in house
T3 sequence (Q7L7X3 2-322): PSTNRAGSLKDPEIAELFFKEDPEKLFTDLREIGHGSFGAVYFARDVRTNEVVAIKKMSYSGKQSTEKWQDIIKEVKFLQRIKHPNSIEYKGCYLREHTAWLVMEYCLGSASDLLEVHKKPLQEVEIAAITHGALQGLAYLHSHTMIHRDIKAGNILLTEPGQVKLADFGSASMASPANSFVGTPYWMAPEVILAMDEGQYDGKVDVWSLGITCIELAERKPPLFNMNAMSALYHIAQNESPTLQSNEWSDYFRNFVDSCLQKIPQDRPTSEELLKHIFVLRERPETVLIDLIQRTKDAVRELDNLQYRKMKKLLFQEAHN
Outline: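 KIAA 1361 kinase domain 2-322 (baculovirus, 12 nM) with 2 μM ATP and 10 μM MBP in Tris pH 7.5, MgCl2, MnCl2; 2 h, ambient. Remaining ATP read by luciferase chemiluminescence; 10 concentrations, IC50 by four-parameter fit.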

Row | IC50 [1] [µM] | IC50 [2] [µM] | IC50 [3] [µM] | Compound
1 | 0.05 to 0.5 | < 0.05 | 0.05 to 0.5 | O=C(CC(NC(=O)c1ccccc1)c1ccccc1)NCC(=O)Nc1nc2ccccc2s1 (stereo not drawn) [Entry 90, N-(3-{[2-(1,3-benzothiazol-2-ylamino)-2-oxoethyl]amino}-3-oxo-1-phenylpropyl)benzamide]
2 | 0.05 to 0.5 | 0.05 to 0.5 | 0.05 to 0.5 | CCCCCc1ccc(C(=O)NCC(=O)NC2CCCc3ccccc32)cc1 (stereo not drawn) [Entry 11, N-[2-oxo-2-(1,2,3,4-tetrahydronaphthalen-1-ylamino)ethyl]-4-pentylbenzamide]
3 | > 5 | > 5 | > 5 | CCc1ccc(-c2ccc(C(=O)NCC(=O)N3CCN(c4ccccc4)CC3)cc2)cc1 [Entry 68, 4′-ethyl-N-[2-oxo-2-(4-phenylpiperazin-1-yl)ethyl]biphenyl-4-carboxamide]
4 | 0.05 to 0.5 | 0.05 to 0.5 | 0.05 to 0.5 | CCc1ccc(-c2ccc(C(=O)NCC(=O)NCc3ccccc3C)cc2)cc1 [Entry 74, 4′-ethyl-N-(2-{[(2-methylphenyl)methyl]amino}-2-oxoethyl)biphenyl-4-carboxamide]
5 | 0.5 to 5 | 0.5 to 5 | 0.5 to 5 | O=C(COc1ccc(OC(F)(F)F)cc1)NCC(=O)NC1CCCc2ccccc21 (stereo not drawn) [Entry 31, N-(1,2,3,4-tetrahydronaphthalen-1-yl)-N˜2˜-[({4-[(trifluoromethyl)oxy]phenyl}oxy)acetyl]glycinamide]
6 | 0.05 to 0.5 | < 0.05 | 0.05 to 0.5 | O=C(CNC(=O)c1ccc(-c2cnco2)cc1)NC1CCCc2ccccc21 (stereo not drawn) [Entry 71, 4-(1,3-oxazol-5-yl)-N-[2-oxo-2-(1,2,3,4-tetrahydronaphthalen-1-ylamino)ethyl]benzamide]
7 | > 5 | 0.05 to 0.5 | > 5 | CCCCCCOc1ccc(C(=O)NC(C)C(=O)NC2CCc3ccccc3C2)cc1 (stereo not drawn) [Entry 36, 4-(hexyloxy)-N-[1-methyl-2-oxo-2-(1,2,3,4-tetrahydronaphthalen-2-ylamino)ethyl]benzamide]
8 | > 5 | > 5 | > 5 | CCc1ccc(-c2ccc(C(=O)NCC(=O)NCc3ccccc3)cc2)cc1 [Entry 52, 4-ethyl-N-{2-oxo-2-[(phenylmethyl)amino]ethyl}biphenyl-4-carboxamide]
9 | 0.05 to 0.5 | < 0.05 | 0.05 to 0.5 | O=C(NC1CCCc2ccccc21)C(NC(=O)C(c1ccccc1)C1CCCC1)c1cccnc1 (stereo not drawn) [Entry 7, 2-cyclopentyl-N-[2-oxo-1-pyridin-3-yl-2-(1,2,3,4-tetrahydronaphthalen-1-ylamino)ethyl]-2-phenylacetamide]
10 | > 5 | > 5 | > 5 | CCc1ccc(-c2ccc(C(=O)NCC(=O)N3CCc4ccccc4C3)cc2)cc1 [Entry 60, N-[2-(3,4-dihydroisoquinolin-2(1H)-yl)-2-oxoethyl]-4′-ethylbiphenyl-4-carboxamide]
11 | 0.05 to 0.5 | 0.05 to 0.5 | 0.05 to 0.5 | CCCCCCc1ccc(C(=O)NCC(=O)NC2CCCc3ccccc32)cc1 (stereo not drawn) [Entry 10, 4-hexyl-N-[2-oxo-2-(1,2,3,4-tetrahydronaphthalen-1-ylamino)ethyl]benzamide]
12 | > 5 | 0.5 to 5 | 0.5 to 5 | O=C(CNC(=O)c1ccc2ccccc2c1)NC1CCCc2ccccc21 (stereo not drawn) [Entry 44, N-[2-oxo-2-(1,2,3,4-tetrahydronaphthalen-1-ylamino)ethyl]naphthalene-2-carboxamide]
13 | > 5 | > 5 | > 5 | CCc1cccc(NC(=O)NCC(=O)NC2CCCc3ccccc32)c1 (stereo not drawn) [Entry 48, N˜2˜-{[(3-ethylphenyl)amino]carbonyl}-N-(1,2,3,4-tetrahydronaphthalen-1-yl)glycinamide]
14 | < 0.05 | < 0.05 | < 0.05 | COc1ccc2nc(NC(=O)COC(=O)CC(NC(=O)c3ccccc3)c3ccccc3)sc2c1 (stereo not drawn) [Entry 37, 2-{[6-(methyloxy)-1,3-benzothiazol-2-yl]amino}-2-oxoethyl 3-phenyl-3-[(phenylcarbonyl)amino]propanoate]
15 | > 5 | 0.05 to 0.5 | > 5 | O=C(CNC(=O)Nc1ccc(-c2ccccc2)cc1)NC1CCCc2ccccc21 (stereo not drawn) [Entry 73, N˜2˜-[(biphenyl-4-ylamino)carbonyl]-N-(1,2,3,4-tetrahydronaphthalen-1-yl)glycinamide]
16 | 0.5 to 5 | 0.05 to 0.5 | 0.5 to 5 | O=C(CNC(=O)c1ccc(-n2ccnc2)cc1)NC1CCCc2ccccc21 (stereo not drawn) [Entry 70, 4-(1H-imidazol-1-yl)-N-[2-oxo-2-(1,2,3,4-tetrahydronaphthalen-1-ylamino)ethyl]benzamide]
17 | > 5 | > 5 | > 5 | O=C(CC(NC(=O)c1ccccc1)c1ccccc1)NCC(=O)NC1CCCc2ccccc21 (stereo not drawn) [Entry 81, N-(3-oxo-3-{[2-oxo-2-(1,2,3,4-tetrahydronaphthalen-1-ylamino)ethyl]amino}-1-phenylpropyl)benzamide]
18 | 0.5 to 5 | 0.05 to 0.5 | 0.05 to 0.5 | CCCCCOc1ccc(C(=O)NC(C)C(=O)NC2CCc3ccccc3C2)cc1 (stereo not drawn) [Entry 9, N-[1-methyl-2-oxo-2-(1,2,3,4-tetrahydronaphthalen-2-ylamino)ethyl]-4-(pentyloxy)benzamide]
19 | > 5 | > 5 | > 5 | COc1ccc2nc(NC(=O)CNC(=O)CC(NC(C)=O)c3ccccc3)sc2c1 (stereo not drawn) [Entry 84, 3-(acetylamino)-N-(2-{[6-(methyloxy)-1,3-benzothiazol-2-yl]amino}-2-oxoethyl)-3-phenylpropanamide]
20 | > 5 | > 5 | > 5 | O=C(CNC(=O)C(NC(=O)C(c1ccccc1)C1CCCC1)c1cccnc1)NC1CCCc2ccccc21 (stereo not drawn) [Entry 55, N˜2˜-[{[cyclopentyl(phenyl)acetyl]amino}(pyridin-3-yl)acetyt]-N-(1,2,3,4-tetrahydronaphthalen-1-yl)glycinamide]
21 | 0.5 to 5 | 0.05 to 0.5 | 0.05 to 0.5 | CCCCCCCc1ccc(C(=O)NCC(=O)NC2CCCc3ccccc32)cc1 (stereo not drawn) [Entry 12, 4-heptyl-N-[2-oxo-2-(1,2,3,4-tetrahydronaphthalen-1-ylamino)ethyl]benzamide]
22 | 0.5 to 5 | 0.05 to 0.5 | 0.5 to 5 | O=C(CC(NC(=O)c1ccccc1)c1ccccc1)NCC(=O)Nc1nccs1 (stereo not drawn) [Entry 92, N-(3-oxo-3-{[2-oxo-2-(1,3-thiazol-2-ylamino)ethyl]amino}-1-phenylpropyl)benzamide]
